In ChEMBL document CHEMBL4028835, “Identification of low micromolar dual inhibitors for aldose reductase (ALR2) and poly (ADP-ribose) polymerase (PARP-1) using structure based design approach” (Bioorg Med Chem Lett, 2017):

Assays:
[1] = target: Poly [ADP-ribose] polymerase 1 (Homo sapiens, UniProt P09874); assay: Inhibition of PARP1 (unknown origin) using activated DNA as substrate measured after 60 mins in presence of biotinylated NAD by colorimetric assay
[2] = Inhibition of goat lenses ALR2 using glyceraldehyde as substrate measured for 5 mins by UV-spectrophotometric method; set-up: species or system Capra hircus

Chain of Poly [ADP-ribose] polymerase 1 (P09874 whole entry): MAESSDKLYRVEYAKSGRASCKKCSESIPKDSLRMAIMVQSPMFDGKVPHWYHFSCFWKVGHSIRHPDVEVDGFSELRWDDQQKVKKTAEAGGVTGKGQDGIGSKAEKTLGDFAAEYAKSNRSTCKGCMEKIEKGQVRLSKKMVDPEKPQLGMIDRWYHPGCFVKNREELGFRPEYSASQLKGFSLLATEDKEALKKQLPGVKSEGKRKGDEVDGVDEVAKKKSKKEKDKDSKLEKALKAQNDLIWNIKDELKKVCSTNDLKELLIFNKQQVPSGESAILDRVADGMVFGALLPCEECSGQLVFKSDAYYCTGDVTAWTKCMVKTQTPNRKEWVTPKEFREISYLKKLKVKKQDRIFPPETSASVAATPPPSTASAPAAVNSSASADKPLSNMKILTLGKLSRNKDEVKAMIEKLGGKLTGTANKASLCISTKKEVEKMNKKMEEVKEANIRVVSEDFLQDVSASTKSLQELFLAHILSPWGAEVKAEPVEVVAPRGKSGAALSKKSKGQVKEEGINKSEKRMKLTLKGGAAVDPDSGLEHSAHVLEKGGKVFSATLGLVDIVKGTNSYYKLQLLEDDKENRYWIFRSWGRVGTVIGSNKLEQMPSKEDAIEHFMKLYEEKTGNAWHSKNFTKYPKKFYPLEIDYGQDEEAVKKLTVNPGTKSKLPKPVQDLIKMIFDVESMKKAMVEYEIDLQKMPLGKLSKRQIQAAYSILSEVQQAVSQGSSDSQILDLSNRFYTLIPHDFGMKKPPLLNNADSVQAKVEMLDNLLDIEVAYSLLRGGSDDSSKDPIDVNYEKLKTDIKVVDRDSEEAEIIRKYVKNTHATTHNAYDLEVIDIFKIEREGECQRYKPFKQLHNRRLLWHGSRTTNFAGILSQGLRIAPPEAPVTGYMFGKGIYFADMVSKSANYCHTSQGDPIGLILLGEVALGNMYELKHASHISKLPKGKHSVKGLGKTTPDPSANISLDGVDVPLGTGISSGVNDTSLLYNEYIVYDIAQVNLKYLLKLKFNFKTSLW

IC50 [1] [µM]	IC50 [2] [µM]	SMILES
> 100	16.4	O=C1NC(=O)/C(=C/c2c[nH]c3ccccc23)S1
–	13.9	CCc1ccc(Cn2cc(C=C3SC(=O)NC3=O)c3ccccc32)cc1
–	24.4	O=C1NC(=O)/C(=C/c2cn(Cc3ccc(Cl)cc3Cl)c3ccccc23)S1
–	11.5	Cc1ccc(Cn2cc(C=C3SC(=O)NC3=O)c3ccccc32)cc1
–	22.9	O=C1NC(=O)/C(=C/c2cn(Cc3cccc(C(F)(F)F)c3)c3ccccc23)S1
–	48.5	CC(C)(C)c1ccc(Cn2cc(/C=C3\SC(=O)NC3=O)c3ccccc32)cc1
> 100	6.57	O=C1NC(=O)/C(=C/c2cn(Cc3ccccc3)c3ccccc23)S1
> 100	15.4	O=C1NC(=O)/C(=C/c2cn(Cc3ccc(Cl)cc3)c3ccccc23)S1
–	1.7	O=C1NC(=O)/C(=C/c2cn(Cc3ccc(F)cc3)c3ccccc23)S1
0.74	40	CC(C)c1ccc(Cn2cc(C=C3SC(=O)NC3=O)c3ccccc32)cc1
–	23	O=C1NC(=O)/C(=C/c2cn(Cc3cccc(Cl)c3)c3ccccc23)S1
–	4.72	O=C1NC(=O)/C(=C/c2cn(Cc3ccccc3Cl)c3ccccc23)S1
–	0.09	CC(/C=C1\SC(=S)N(CC(=O)O)C1=O)=C\c1ccccc1
